The test system of series [1] is E. coli MG1655. Briefly: Minimum inhibitory concentration (MIC) determination. The conditions noted are these: for MIC: Escherichia coli; for effect of intermediates of biotin biosynthesis on inhibitory activity (in words): KAPA, DAPA, DTB, biotin in media; for Fold suppression: MIC with supplement / MIC without.
Experimental: The MIC values were determined in liquid minimal media and minimal media supplemented with amino acids, vitamins and nucleobases.
A single colony of E. coli MG1655 was grown overnight in 5 ml of M9 minimal media. The saturated culture was diluted 1/50 in fresh minimal media and allowed to grow until the OD600 reached ˜0.4. […] After mixing of the bacterial culture with the compounds, the OD600 of the plates was read using Envision to account for background absorbance. The plates were then incubated in a 37° C. stationary incubator for 16 hours before measuring their OD600. After subtracting any background absorbance contributed by colored or precipitated compounds, the MIC was defined as the lowest concentration of antibiotic that inhibits visible growth.
The subject of a further series is Mycobacteria smegmatis. Briefly: MIC against Mycobacteria smegmatis in absence and presence of biotin. It counts as cell-based.
The test system of a further series is Acinetobacter baumannii. Briefly: Activity against other organisms. It counts as cell-based. The method, then: (§1) The activity of MAC13772 was tested against a number of organisms in addition to Escherichia coli using methods similar to those described in Example 2.
In the next series the test system is Klebsiella pneumonia. Briefly: Activity against other organisms. It is filed as cell-based. As to the method:
as §1

The next series relates to Bacillus subtilis. Briefly: Activity against other organisms. It is filed as cell-based. The method, then: as §1
The test system of another series is Salmonella typhimurium. Briefly: Activity against other organisms. It is filed as cell-based. The method, then: as §1
In a further series the test system is Staphylococcus aureus. Briefly: Activity against other organisms. It is filed as cell-based. The method, then: as §1
Series [2] relates to Mycobacterium tuberculosis. Briefly: Activity against other organisms. It counts as cell-based. The method, then: as §1
Series [3] concerns E. coli MG1655. Briefly: Metabolic suppression profiling (ChemArray). It is filed as cell-based. The conditions noted are these: for suppression of growth inhibitory activity by p-aminobenzoic acid (PABA): PABA in growth media; for suppression of growth inhibitory activity by methionine: methionine in growth media; for metabolic suppression profile: metabolites that suppress growth inhibitory activity: ChemArray.

The target of a further series is BioA (Escherichia coli, UniProt P12995). Briefly: UV-visible spectra of BioA titrated with inhibitor. It counts as binding, E. coli. As to the method: To further determine if the inhibition of BioA by MAC13772 is mediated through the interaction of the hydrazine moiety in the compound with PLP in the active site of the enzyme, the UV-visible spectra of BioA was assessed when titrated with the inhibitor.
Chain of BioA (P12995 whole entry): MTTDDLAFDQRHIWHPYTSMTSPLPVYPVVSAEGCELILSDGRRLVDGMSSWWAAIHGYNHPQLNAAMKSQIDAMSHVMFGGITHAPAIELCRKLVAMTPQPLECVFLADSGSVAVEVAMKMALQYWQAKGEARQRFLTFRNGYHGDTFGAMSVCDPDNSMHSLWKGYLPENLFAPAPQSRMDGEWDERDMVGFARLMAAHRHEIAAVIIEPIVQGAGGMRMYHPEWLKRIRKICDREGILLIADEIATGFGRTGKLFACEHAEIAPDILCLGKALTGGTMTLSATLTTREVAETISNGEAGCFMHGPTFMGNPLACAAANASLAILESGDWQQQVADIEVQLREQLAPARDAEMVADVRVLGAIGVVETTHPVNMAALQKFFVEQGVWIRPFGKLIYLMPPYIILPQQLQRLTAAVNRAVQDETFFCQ

A further series deals with recombinant E. coli BioA (Escherichia coli, UniProt P12995). Briefly: BioA inhibition through a feeding assay of a bioA auxotroph. It counts as biochemical. As to the method:
To determine if the step catalyzed by BioA was the target of this inhibitor, the inhibitory activity of MAC-0013772 against recombinant E. coli BioA was assayed through a feeding assay of a bioA auxotroph.

Series [4] has as its system E. coli wild-type, ΔltaEΔtdh and ΔltaEΔtdhΔkbl strains.
Series [5] deals with T1, recombinant PabA, PabB and PabC (Escherichia coli, UniProt P00903+P05041+P28305).
T1 construct: poly-histidine (pDEST17) (N); made in house; host or cells: E. coli BL21AI (pDEST17, arabinose induction)
T1 sequence (P00903 whole entry): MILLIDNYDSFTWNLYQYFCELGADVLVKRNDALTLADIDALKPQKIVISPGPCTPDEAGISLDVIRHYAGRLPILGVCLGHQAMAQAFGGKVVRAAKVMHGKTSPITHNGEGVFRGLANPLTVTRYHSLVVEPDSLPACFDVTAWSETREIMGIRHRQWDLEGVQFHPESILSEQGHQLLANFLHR
T1 sequence (P05041 whole entry): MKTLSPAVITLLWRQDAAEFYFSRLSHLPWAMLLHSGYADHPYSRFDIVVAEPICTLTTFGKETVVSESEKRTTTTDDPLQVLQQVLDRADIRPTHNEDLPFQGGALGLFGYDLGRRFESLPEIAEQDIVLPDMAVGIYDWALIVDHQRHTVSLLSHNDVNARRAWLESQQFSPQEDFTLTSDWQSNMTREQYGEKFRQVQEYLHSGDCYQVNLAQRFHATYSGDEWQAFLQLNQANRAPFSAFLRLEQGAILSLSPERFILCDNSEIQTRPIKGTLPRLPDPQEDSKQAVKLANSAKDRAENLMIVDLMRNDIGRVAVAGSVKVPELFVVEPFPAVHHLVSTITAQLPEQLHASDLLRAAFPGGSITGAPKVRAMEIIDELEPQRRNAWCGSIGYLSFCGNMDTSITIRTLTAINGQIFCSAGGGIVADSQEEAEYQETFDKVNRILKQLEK
T1 sequence (P28305 whole entry): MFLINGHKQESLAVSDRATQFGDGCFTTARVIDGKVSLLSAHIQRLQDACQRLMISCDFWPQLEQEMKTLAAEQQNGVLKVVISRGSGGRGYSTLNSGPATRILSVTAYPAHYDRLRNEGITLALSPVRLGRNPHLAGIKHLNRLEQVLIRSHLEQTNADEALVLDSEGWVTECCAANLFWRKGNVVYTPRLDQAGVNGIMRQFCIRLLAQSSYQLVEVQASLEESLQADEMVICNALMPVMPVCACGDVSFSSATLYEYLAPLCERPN
Briefly: biochemical. Set-up: species or system E. coli. The method, then:
Enzyme assays were conducted in triplicate at room temperature with 25 nM of PabA and PabB, 50 nM of PabC, 50 mM Tris-HCl (pH 7.5), 20 μM PLP, 1 mM L-glutamine, 40 μM chorismate and the indicated concentrations of MAC-173979. The inhibition assays were initiated by addition of a mixture of the three enzymes and quenched with an equal volume of freshly prepared 8M urea. The reaction progress curves were monitored every 10 minutes for 60 minutes and determined by a stopped HPLC-assay that allowed for the quantification of the conversion of chorismate to PABA. The two compounds were separated on a C18 reverse phase column (Nova-Pak C18, 4 μm, 3.9×150 mm, Waters) and eluted isocratically with 5% acetic acid in double distilled H2O. The analytes were visualized by UV absorbance at 275 nm and identified by comparing their retention times and UV absorption spectra to authentic standards. The progress curves were plotted to the rate equation of slow-binding inhibition: […]
using Sigma Plot 12.0 (SPSS, Inc., Chicago, Ill.), where v0 and vs are the initial and final steady-state reaction velocities, respectively, t is the time and kobs is the apparent first order rate constant for the interconversion between the initial and steady-state rates.
In order to directly test the biochemical activity of MAC-0173979 on PABA synthesis, an HPLC-based one-pot enzyme assay using recombinant PabA, PabB and PabC was set up and the formation of PABA was monitored by measuring its absorbance at 275 nm.
MAC173979 and an analog lacking the Michael acceptor (0-1000 μM) were each incubated with the PABA enzymes for 30 minutes prior to substrate addition. Reactions were quenched after 30 minutes with 8 M urea and analyzed by HPLC.

The structures appear in SMILES notation. In brackets after ≈: the same amount, converted by molar mass. Entries after “also recorded” stand apart in the source; their conditions may differ. Like-named read-outs stand apart in the source and are kept apart here.

Chain of recombinant E. coli BioA (P12995 whole entry): as the sequence (P12995 whole entry) above

As a reminder, the MIC is the smallest concentration in the dilution series that meets the test's criterion for growth inhibition. What is called IC50 is the point on the concentration scale where inhibition reaches its midpoint. Consider `NNC(=O)CSc1ccccc1[N+](=O)[O-]` [MAC13772, 2-(2-nitrophenylthio) acetohydrazide], for which the MIC is 8 µg/mL (≈ 35.2 µM) with E. coli MG1655 [1] (MG1655, read-out: MIC −bio, absence of biotin); more than 256 µg/mL in the series on E. coli MG1655 [1] (MG1655, supplement: AA + VIT + NUC); more than 256 µg/mL with E. coli MG1655 [1] (MG1655, supplement: BIOTIN); more than 256 µg/mL against E. coli MG1655 [1] (MG1655, supplement: DAPA); more than 256 µg/mL in the series with E. coli MG1655 [1] (MG1655, supplement: DTB); 8 µg/mL (≈ 35.2 µM) in the series on E. coli MG1655 [1] (MG1655, supplement: KAPA). Also, the MIC was 4 µg/mL in the series with Mycobacteria smegmatis (absence of biotin, read-out: MIC −bio) and more than 256 µg/mL with Mycobacteria smegmatis (presence of 2 nM of biotin, read-out: MIC +bio). Besides, the “effect of intermediates of biotin biosynthesis on inhibitory activity (in words)” value was “KAPA had no effect” in the series on E. coli MG1655 [1] (listed as MAC-0013372); “fully reversed by DAPA, DTB and biotin” in the series on E. coli MG1655 [1] (listed as MAC-0013772). The Fold suppression with E. coli MG1655 [1] (supplement: AA + VIT + NUC) turned out to be 32; in the series with E. coli MG1655 [1] (supplement: BIOTIN), 32; in the series with E. coli MG1655 [1] (supplement: DAPA) it was 32; in the series with E. coli MG1655 [1] (supplement: DTB), 32; with E. coli MG1655 [1] (supplement: KAPA) it was 1. Further, the antibacterial activity result (in the series on Acinetobacter baumannii; in the series with Klebsiella pneumonia; with Bacillus subtilis; with Salmonella typhimurium; in the series on Staphylococcus aureus; in series [2]) was “active” each time. Further, the “suppression of growth inhibitory activity by biotin” value with E. coli MG1655 [3] (biotin in the growth media) was “uniquely suppressed by biotin”. In addition, the “stoichiometry of protein-ligand interaction (molar ratio plot)” value on BioA ([inhibitor]/[BioA]) is listed as “stoichiometric”. Also, at BioA (shift from 420 nm (internal aldimine) to PLP-inhibitor adduct), the “λmax of PLP-bound BioA after interaction with inhibitor” value worked out at 393 nm. The IC50 on recombinant E. coli BioA was approximately 0.25 µM.

As for `COc1ccc(C(=O)CCN(C)C)cc1` [MAC-0168425, 3-(dimethylamino)-1-(4-methoxyphenyl)propan-1-one], the “suppression of growth inhibitory activity by L-serine” value in the series with E. coli MG1655 [3] (4× MIC in M9 minimal media, L-serine) is on record as “not suppressed”. In the series with E. coli MG1655 [3] (4× MIC in M9 minimal media, L-threonine), the “suppression of growth inhibitory activity by L-threonine” value is listed as “partially suppressed”. In the series on E. coli MG1655 [3] (4× MIC in M9 minimal media, glycine), the “suppression of growth inhibitory activity by glycine” value was “strongly suppressed”. Moreover, the “fold shift in MIC” value in series [4] (wild-type strain, 40-640 μg/ml L-threonine) was 4-8 fold; in [4] (ΔltaEΔtdh double deletion strain, 320-640 μg/ml L-threonine), 2 fold. Also, in [4] (ΔltaEΔtdhΔkbl triple deletion mutant), the “suppression of activity by L-threonine” value was “completely lost”.

One may read the Ki as the dissociation constant of the complex between target and ligand, obtained from inhibition or displacement. `O=C(C=C(Cl)Cl)c1cccc([N+](=O)[O-])c1` [MAC-0173979, 3,3-dichloro-1-(3-nitrophenyl)prop-2-en-1-one]: the “fold suppression of MIC on addition of PABA” value in the series on E. coli MG1655 [1] (PABA added to the growth media) was determined as 16 fold. In addition, in [5], the IC50 amounted to 30 ± 2 µM and the Ki stood at 7.3 ± 1.3 µM. The “mechanism of inhibition of PABA synthesis” value in [5] (progress curves, kobs plot) is recorded as “irreversible time-dependent inhibitor”. Further, in the series on E. coli MG1655 [3] (4× MIC in M9 minimal media), the “suppression of growth inhibitory activity by p-aminobenzoic acid (PABA)” value was “suppressed; also recorded: fully reversed” and the “suppression of growth inhibitory activity by methionine” value is reported as “to a certain extent; also recorded: fully reversed”.

Regarding `O=C(CC(Cl)Cl)c1cccc([N+](=O)[O-])c1` [analog lacking the Michael acceptor, 3,3-dichloro-1-(3-nitrophenyl)propan-1-one], the IC50 in [5] came to 60 ± 7 µM.

With `O=C(O)CNCP(=O)(O)O` [glyphosate, reference compound], the “metabolic suppression profile: metabolites that suppress growth inhibitory activity” value in the series with E. coli MG1655 [3] (4× MIC in M9 minimal media) is recorded as “could only be achieved by providing a mixture of amino acids”. Besides, the “suppression of growth inhibitory activity by pools containing the aromatic amino acids” value in the series with E. coli MG1655 [3] (expanded ChemArray) was “fully reversed”.

Consider `CCn1cc(C(=O)O)c(=O)c2cc(F)c(N3CCNCC3)cc21` [norfloxacin, reference compound], for which the “metabolic suppression profile: metabolites that suppress growth inhibitory activity” value with E. coli MG1655 [3] (4× MIC in M9 minimal media) is given as “not altered in the presence of supplements”.

On to `Cc1cc(NS(=O)(=O)c2ccc(N)cc2)no1` [sulfamethoxazole, reference compound], for which, in the series with E. coli MG1655 [3] (4× MIC in M9 minimal media), the “suppression of growth inhibitory activity by p-aminobenzoic acid (PABA)” value is reported as “fully reversed” and the “suppression of growth inhibitory activity by methionine” value is on record as “to a certain extent”.
